Data taken from US7449546B2, “Method for extending storage of glutathione solutions and methods for treating Parkinson's disease with said stored glutathione solutions” (Kromar Medical Corporation, priority 2001, dated 2008).
Read-outs that look alike come from different tables or passages of the source.

What was measured:
liver cancer = conditions: oral, daily amount of 5,000 mg, eight patients; cited from earlier work
[1] = for [G-SH]/[G-SH]0: storage at 5° C.
[2] = for [G-SH]/[G-SH]0: storage at 25° C.
Procedure: This solution was stored at room temperature (25° C.) for 74 days.

[3] = solution temperature lowered by 20° C. from room temperature

N[C@@H](CCC(=O)N[C@@H](CS)C(=O)NCC(=O)O)C(=O)O [reduced glutathione]
effects in patients with liver cancer (liver cancer): modest effects in women but not in men | dimerization of glutathione [1, 3]: essentially stopped | storage period of the reduced glutathione solution [1, 3]: significantly greater than four months | [G-SH]/[G-SH]0 ([1]; 1 day, 189 mg/ml, pH 6.4): 1.02 | [G-SH]/[G-SH]0 ([1]; 2 days, 189 mg/ml, pH 6.4): 1.01 | [G-SH]/[G-SH]0 ([1]; 3 days, 189 mg/ml, pH 6.4): 1.01 | [G-SH]/[G-SH]0 ([1]; 7 days, 189 mg/ml, pH 6.4): 1.02 | [G-SH]/[G-SH]0 ([1]; 14 days, 189 mg/ml, pH 6.4): 1.00 | [G-SH]/[G-SH]0 ([1]; 21 days, 189 mg/ml, pH 6.4): 0.99 | [G-SH]/[G-SH]0 ([1]; 28 days, 189 mg/ml, pH 6.4): 1.02 | [G-SH]/[G-SH]0 ([1]; 56 days, 189 mg/ml, pH 6.4): 1.00 | [G-SH]/[G-SH]0 ([1]; 84 days, 189 mg/ml, pH 6.4): 1.00 | [G-SH]/[G-SH]0 ([1]; 112 days, 189 mg/ml, pH 6.4): 0.98 | decrease of reduced glutathione concentration over time ([1]; stored at 5° C., monitored for four months, 189 mg/ml, 0.005M octylammonium orthophosphate, pH 6.4): no decrease over time | concentration of reduced glutathione relative to its initial value ([2]; room temperature (25° C.), within three weeks, 180 mg/ml, pH 6.4): 90% | safe storage time in aqueous solution ([2]; room temperature, absence of oxidation catalysts, criterion at least 90% of initial concentration): cannot be safely stored in aqueous solution at room temperature for longer than three weeks | [G-SH]/[G-SH]0 ([2]; 1 day, 180 mg/ml, pH 6.4): 0.94 | [G-SH]/[G-SH]0 ([2]; 2 days, 180 mg/ml, pH 6.4): 0.99 | [G-SH]/[G-SH]0 ([2]; 3 days, 180 mg/ml, pH 6.4): 0.99 | [G-SH]/[G-SH]0 ([2]; 7 days, 180 mg/ml, pH 6.4): 0.98 | [G-SH]/[G-SH]0 ([2]; 14 days, 180 mg/ml, pH 6.4): 0.95 | [G-SH]/[G-SH]0 ([2]; 21 days, 180 mg/ml, pH 6.4): 0.90 | [G-SH]/[G-SH]0 ([2]; 28 days, 180 mg/ml, pH 6.4): 0.89 | [G-SH]/[G-SH]0 ([2]; 56 days, 180 mg/ml, pH 6.4): 0.78 | [G-SH]/[G-SH]0 ([2]; 74 days, 180 mg/ml, pH 6.4): 0.68
